The text below walks through data of patent US8822467B2 (Ligand Pharmaceuticals Inc., priority 2009, dated 2014).

The assay addresses T1, human CRTH2 (Homo sapiens, UniProt Q9Y5Y4).
T1 construct: expressed in transfected cells
T1 sequence (Q9Y5Y4 1-395): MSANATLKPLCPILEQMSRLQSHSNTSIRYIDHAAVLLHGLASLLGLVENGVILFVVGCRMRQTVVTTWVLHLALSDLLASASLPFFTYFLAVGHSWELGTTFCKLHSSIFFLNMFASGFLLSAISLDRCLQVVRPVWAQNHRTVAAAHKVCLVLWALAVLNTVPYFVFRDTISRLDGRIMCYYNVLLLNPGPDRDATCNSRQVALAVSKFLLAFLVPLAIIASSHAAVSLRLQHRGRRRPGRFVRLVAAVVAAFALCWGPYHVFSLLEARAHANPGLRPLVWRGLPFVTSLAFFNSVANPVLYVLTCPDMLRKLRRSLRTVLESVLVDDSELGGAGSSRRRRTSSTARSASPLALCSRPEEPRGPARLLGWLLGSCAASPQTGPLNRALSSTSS
As to the kind of experiment: [35S]GTPγS binding assay (SPA) on membranes from CHO-K1 cells stably expressing human CRTH2, stimulated with 60 nM DHK-PGD2. It counts as biochemical. Particulars: potency class symbols; Table 2; read-out: CRTH2 hGTPγS IC50. The method, boiled down: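 Read-out is scintillation proximity: bound [35S]GTPγS (500 pM, with 10 μM GDP) was counted 4 h after centrifuging a 2 h ambient-temperature incubation. Reactions held 4 μg human CRTH2 CHO-K1 membrane protein, 60 nM DHK-PGD2 agonist and test compounds at increasing concentrations. Buffer: 20 mM HEPES pH 7.4, 10 mM MgCl2, 300 mM NaCl, 0.2% BSA, 1% DMSO.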
`CC(C)N(Cc1ccc(OCC(=O)O)c(-c2cccc(C(F)(F)F)c2)c1)S(=O)(=O)c1ccc(F)c(F)c1` [Example 152, 2-(3-trifluoromethylphenyl)-4-((3,4-difluoro-N-isopropylphenylsulfonamido)methyl)phenoxyacetic acid]: the IC50 lay in the range of 1 to 10 µM.
As for `COc1cccc(S(=O)(=O)N(C)Cc2ccc(OCC(=O)O)c(-c3cccc(C(F)(F)F)c3)c2)c1` [Example 153, 2-(3-trifluoromethylphenyl)-4-((3-methoxy-N-methylphenylsulfonamido)methyl)phenoxyacetic acid], the figure is 1 to 10 µM.
For the molecule `CN(Cc1ccc(OCC(=O)O)c(-c2ccc(F)c(F)c2)c1)S(=O)(=O)c1ccccc1` [Example 154, 2-(3,4-difluorophenyl)-4-((N-methylphenylsulfonamido)methyl)phenoxyacetic acid], the IC50 was in the range of 1 to 10 µM.
As for `CN(Cc1ccc(OCC(=O)O)c(-c2cnccn2)c1)S(=O)(=O)c1ccc(F)cc1` [Example 155, 2-(pyrazinyl)-4-((4-fluoro-N-methylphenylsulfonamido)methyl)phenoxyacetic acid], the IC50 fell in the range of 1 to 10 µM.
With `Cc1cccc(-c2cc(CN(C)S(=O)(=O)c3ccc(F)cc3)ccc2OCC(=O)O)c1` [Example 156, 2-(3-methylphenyl)-4-((4-fluoro-N-methylphenylsulfonamido)methyl)phenoxyacetic acid], the IC50 fell in the range of 1 to 10 µM.
For the molecule `CN(Cc1ccc(OCC(=O)O)c(-c2ccc(F)c(Cl)c2)c1)S(=O)(=O)c1ccc(F)cc1` [Example 157, 2-(3-chloro-4-fluorophenyl)-4-((4-fluoro-N-methylphenylsulfonamido)methyl)phenoxyacetic acid], the IC50 lay within 1 to 10 µM.
Regarding `CC(C)N(Cc1ccc(OCC(=O)O)c(-c2cccc(C(F)(F)F)c2)c1)S(=O)(=O)c1ccc(F)cc1` [Example 158, 2-(3-trifluoromethylphenyl)-4-((4-fluoro-N-isopropylphenylsulfonamido)methyl)phenoxyacetic acid], the IC50 is 1 to 10 µM.
Regarding `CN(Cc1ccc(OCC(=O)O)c(-c2cccc(C(F)(F)F)c2)c1)S(=O)(=O)Cc1ccccc1` [Example 159, 2-(3-trifluoromethylphenyl)-4-((N-methylbenzylsulfonamido)methyl)phenoxyacetic acid], the IC50 lay within 1 to 10 µM.
As for `Cc1noc(C)c1S(=O)(=O)N(C)Cc1ccc(OCC(=O)O)c(-c2cccc(C(F)(F)F)c2)c1` [Example 160, 2-(3-trifluoromethylphenyl)-4-((N,3,5-trimethylisoxazole-4-sulfonamido)methyl)phenoxyacetic acid], the IC50 was in the range of 1 to 10 µM.
In the case of `CN(Cc1cc(F)c(OCC(=O)O)c(-c2cccc(C(F)(F)F)c2)c1)S(=O)(=O)c1ccc(F)cc1` [Example 161, 2-(3-trifluoromethylphenyl)-4-((4-fluoro-N-methylphenylsulfonamido)methyl)-6-fluorophenoxyacetic acid], the IC50 lay in the range of 1 to 10 µM.
Turning to `CN(Cc1ccc(OCC(=O)O)c(-c2ccc(C(F)(F)F)cc2)c1)S(=O)(=O)c1ccc(F)cc1` [Example 162, 2-(4-trifluoromethylphenyl)-4-((4-fluoro-N-methylphenylsulfonamido)methyl)phenoxyacetic acid], the IC50 fell in the range of 1 to 10 µM.
As to `CN(Cc1ccc(OCC(=O)O)c(-c2cccc(Cl)c2)c1)S(=O)(=O)c1ccc(F)cc1` [Example 163, 2-(3-chlorophenyl)-4-((4-fluoro-N-methylphenylsulfonamido)methyl)phenoxyacetic acid], the IC50 fell in the range of 1 to 10 µM.
For `COc1ccc(-c2cc(CN(C)S(=O)(=O)c3ccc(F)cc3)ccc2OCC(=O)O)cc1` [Example 164, 2-(4-methoxyphenyl)-4-((4-fluoro-N-methylphenylsulfonamido)methyl)phenoxyacetic acid], the IC50 was in the range of 1 to 10 µM.
As for `CN(Cc1ccc(OCC(=O)O)c(-c2ccc(Cl)cc2)c1)S(=O)(=O)c1ccc(F)cc1` [Example 165, 2-(4-chlorophenyl)-4-((4-fluoro-N-methylphenylsulfonamido)methyl)phenoxyacetic acid], the figure is 1 to 10 µM; as for `CN(Cc1ccc(OCC(=O)O)c(-c2cc(F)ccc2F)c1)S(=O)(=O)c1ccccc1` [Example 166, 2-(2,5-difluorophenyl)-4-((N-methylphenylsulfonamido)methyl)phenoxyacetic acid], 1 to 10 µM.
`CN(Cc1ccc(OCC(=O)O)c(-c2cccc(Cl)c2)c1)S(=O)(=O)c1ccccc1` [Example 167, 2-(3-chlorophenyl)-4-((N-methylphenylsulfonamido)methyl)phenoxyacetic acid]: the IC50 is 1 to 10 µM.
For `CN(Cc1ccc(OCC(=O)O)c(-c2cc(C(F)(F)F)ccn2)c1)S(=O)(=O)c1ccc(F)cc1` [Example 168, 2-(4-trifluoromethylpyridinyl)-4-((4-fluoro-N-methylphenylsulfonamido)methyl)phenoxyacetic acid], the IC50 lay in the range of 1 to 10 µM.
For `CN(Cc1ccc(OCC(=O)O)c(-c2ccccc2)c1)S(=O)(=O)c1ccccc1` [Example 169, 2-phenyl-4-((N-methylphenylsulfonamido)methyl)phenoxyacetic acid], the IC50 lay in the range of 1 to 10 µM.
In the case of `CN(Cc1ccc(OCC(=O)O)c(-c2cccc(C(F)(F)F)c2)c1)S(=O)(=O)c1ccccc1Cl` [Example 170, 2-(3-trifluoromethylphenyl)-4-((2-chloro-N-methylphenylsulfonamido)methyl)phenoxyacetic acid] it was 1 to 10 µM; in that of `Cc1noc(C)c1-c1cc(CN(C)S(=O)(=O)c2ccc(F)cc2)ccc1OCC(=O)O` [Example 171, 2-(3,5-dimethylisoxazol-4-yl)-4-((4-fluoro-N-methylphenylsulfonamido)methyl)phenoxyacetic acid], 1 to 10 µM.
On to `CN(Cc1ccc(OCC(=O)O)c(-c2cncnc2)c1)S(=O)(=O)c1ccccc1` [Example 172, 2-(pyrimidin-5-yl)-4-((N-methylphenylsulfonamido)methyl)phenoxyacetic acid], for which the IC50 is 1 to 10 µM.
In the case of `CN(Cc1ccc(OCC(=O)O)c(-c2cccc(C(F)(F)F)c2)c1)S(=O)(=O)c1ccccn1` [Example 173, 2-(3-trifluoromethylphenyl)-4-((N-methylpyridine-2-sulfonamido)methyl)phenoxyacetic acid], the IC50 is 1 to 10 µM.
In the case of `CC(C)N(Cc1ccc(OCC(=O)O)c(-c2cccc(C(F)(F)F)c2)c1)S(=O)(=O)c1cc(F)cc(F)c1` [Example 174, 2-(3-trifluoromethylphenyl)-4-((3,5-difluoro-N-isopropylphenylsulfonamido)methyl)phenoxyacetic acid], the IC50 was 1 to 10 µM.
As for `CN(Cc1ccc(OCC(=O)O)c(-c2cccc(C(=O)N3CCOCC3)c2)c1)S(=O)(=O)c1ccc(F)cc1` [Example 175, 2-(3-morpholinocarbonylphenyl)-4-((4-fluoro-N-methylphenylsulfonamido)methyl)phenoxyacetic acid], the IC50 lay in the range of 1 to 10 µM.
Consider `CN(Cc1ccc(OCC(=O)O)c(-c2ccc[n+]([O-])c2)c1)S(=O)(=O)c1ccc(F)cc1` [Example 176, 2-(N-oxy-pyridine-3-yl)-4-((4-fluoro-N-methylphenylsulfonamido)methyl)phenoxyacetic acid], for which the IC50 lay in the range of 1 to 10 µM.
For `CN(Cc1ccc(OCC(=O)O)c(-c2ccccc2Cl)c1)S(=O)(=O)c1ccc(F)cc1` [Example 177, 2-(2-chlorophenyl)-4-((4-fluoro-N-methylphenylsulfonamido)methyl)phenoxyacetic acid], the IC50 fell in the range of 1 to 10 µM.
As for `CN(Cc1ccc(OCC(=O)O)c(-c2ccccc2)c1)S(=O)(=O)c1ccc(F)cc1` [Example 178, 2-phenyl-4-((4-fluoro-N-methylphenylsulfonamido)methyl)phenoxyacetic acid], the figure is 1 to 10 µM; as for `CN(Cc1ccc(OCC(=O)O)c(-c2ccc(Cl)cc2)c1)S(=O)(=O)c1ccccc1` [Example 179, 2-(4-chlorophenyl)-4-((N-methylphenylsulfonamido)methyl)phenoxyacetic acid], 1 to 10 µM; as for `CN(Cc1ccc(OCC(=O)O)c(-c2cccc3ncccc23)c1)S(=O)(=O)c1ccc(F)cc1` [Example 180, 2-(quinolin-5-yl)-4-((4-fluoro-N-methylphenylsulfonamido)methyl)phenoxyacetic acid], 1 to 10 µM.
As to `CN(Cc1ccc(OCC(=O)O)c(-c2cccc(C(F)(F)F)c2)c1)S(=O)(=O)C1CC1` [Example 181, 2-(3-trifluoromethylphenyl)-4-((N-methylcyclopropanesulfonamido)methyl)phenoxyacetic acid], the IC50 lay in the range of 1 to 10 µM.
Consider `CN(C)S(=O)(=O)N(C)Cc1ccc(OCC(=O)O)c(-c2cccc(C(F)(F)F)c2)c1` [Example 182, 2-(3-trifluoromethylphenyl)-4-((N-methyldimethylaminosulfonamido)methyl)phenoxy acetic acid], for which the IC50 was in the range of 1 to 10 µM.
For `CN(Cc1ccc(OCC(=O)O)c(-c2ccc3cc[nH]c3c2)c1)S(=O)(=O)c1ccc(F)cc1` [Example 183, 2-(1H-indol-6-yl)-4-((4-fluoro-N-methylphenylsulfonamido)methyl)phenoxyacetic acid], the IC50 was 1 to 10 µM.
On to `CN(Cc1ccc(OCC(=O)O)c(-c2ccc3ncn(C)c3c2)c1)S(=O)(=O)c1ccc(F)cc1` [Example 184, 2-(3-methyl-3H-benzo[d]imidazol-5-yl)-4-((4-fluoro-N-methylphenylsulfonamido)methyl)phenoxyacetic acid], for which the IC50 lay within 1 to 10 µM.
